Experiments:
[1] = molecular target: T1, DmNobo (Drosophila melanogaster, UniProt Q7JYX0); experiment: SPR, Biacore T200, protein immobilised on CM5 chip by amine coupling; type: binding
T1 construct: gene GstE14; full-length CDS, pCold-III, N-terminal translation enhancing element MNHKV kept; E. coli BL21(DE3); homodimer
Excerpt: SPR, Biacore T200, protein immobilised on CM5 chip by amine coupling on DmNobo | Kd values between DmNobo WT and EST in the presence or absence of GSH were […]

[2] = molecular target: T2, DmGSTE9 (Drosophila melanogaster, UniProt A1ZB74); experiment: fluorogenic GSH conjugation assay with […],4-DNADCF; type: biochemical
T2 construct: gene GstE9; full-length CDS, pCold-III, N-terminal MNHKV kept; E. coli BL21(DE3)
T2 sequence (A1ZB74 1-221): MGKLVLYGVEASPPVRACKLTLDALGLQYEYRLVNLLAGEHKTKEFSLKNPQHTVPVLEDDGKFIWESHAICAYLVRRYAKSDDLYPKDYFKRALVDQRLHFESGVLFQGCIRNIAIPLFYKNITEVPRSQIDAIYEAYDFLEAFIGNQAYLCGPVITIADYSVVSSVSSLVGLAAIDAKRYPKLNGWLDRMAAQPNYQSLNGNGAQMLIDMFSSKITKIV

[3] = molecular target: T1, DmNobo; experiment: fluorogenic GSH conjugation assay with […],4-DNADCF; type: biochemical; details: 1 mM GSH, 1 μM 3,4-DNADCF (final, after equal-volume mixing), 100 mM sodium phosphate pH 6.5, 0.01% Tween 20; H-site
[4] = molecular target: T3, DmNobo (Drosophila melanogaster, UniProt Q7JYX0, D113A); experiment: fluorogenic GSH conjugation assay with […],4-DNADCF; type: biochemical
T3 construct: gene GstE14; full-length CDS, pCold-III, N-terminal translation enhancing element MNHKV kept; E. coli BL21(DE3); homodimer

[5] = molecular target: T4, AgNobo (Anopheles gambiae, UniProt Q8WQJ5, D111A); experiment: fluorogenic GSH conjugation assay with […],4-DNADCF; type: biochemical
T4 construct: gene GSTe8; full-length CDS, pCold-III, N-terminal MNHKV kept; E. coli BL21(DE3)
T4 sequence (Q8WQJ5 1-217 D111A): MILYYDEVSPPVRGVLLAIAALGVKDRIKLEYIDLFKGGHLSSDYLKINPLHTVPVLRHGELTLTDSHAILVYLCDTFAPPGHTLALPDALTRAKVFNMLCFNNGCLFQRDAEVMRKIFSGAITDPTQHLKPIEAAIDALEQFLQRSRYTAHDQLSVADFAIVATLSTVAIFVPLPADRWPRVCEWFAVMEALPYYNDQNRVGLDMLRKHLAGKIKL

[6] = molecular target: T5, DmGSTE6 (Drosophila melanogaster, UniProt A1ZB71); experiment: fluorogenic GSH conjugation assay with […],4-DNADCF; type: biochemical
T5 construct: gene GstE6; full-length CDS, pCold-III, N-terminal MNHKV kept; E. coli BL21(DE3)
T5 sequence (A1ZB71 1-222): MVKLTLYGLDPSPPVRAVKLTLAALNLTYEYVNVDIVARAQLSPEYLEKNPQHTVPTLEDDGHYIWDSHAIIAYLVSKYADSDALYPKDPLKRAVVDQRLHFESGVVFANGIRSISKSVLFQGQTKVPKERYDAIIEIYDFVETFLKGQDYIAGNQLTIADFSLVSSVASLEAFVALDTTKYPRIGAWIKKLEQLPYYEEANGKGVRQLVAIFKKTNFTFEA

[7] = molecular target: T6, AgNobo (Anopheles gambiae, UniProt Q8WQJ5); experiment: fluorogenic GSH conjugation assay with […],4-DNADCF; type: biochemical
T6 construct: gene GSTe8; full-length CDS, pCold-III, N-terminal MNHKV kept; E. coli BL21(DE3)
T6 sequence (Q8WQJ5 1-217): T4 sequence (Q8WQJ5 1-217 D111A)

T1 sequence (Q7JYX0 whole entry): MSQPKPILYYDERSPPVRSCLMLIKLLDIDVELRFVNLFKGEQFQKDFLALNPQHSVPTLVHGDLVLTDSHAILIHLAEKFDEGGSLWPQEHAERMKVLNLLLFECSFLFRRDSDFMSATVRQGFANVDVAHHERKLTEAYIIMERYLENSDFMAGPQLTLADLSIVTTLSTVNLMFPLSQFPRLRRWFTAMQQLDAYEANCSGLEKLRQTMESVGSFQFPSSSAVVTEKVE
T3 sequence (Q7JYX0 whole entry D113A): as the sequence (Q7JYX0 whole entry) above, with D113A counted along it

C[C@]12CC[C@@H]3c4ccc(O)cc4CC[C@H]3[C@@H]1CC[C@@H]2O [17β-estradiol]
Kd [1]: 0.48 ± 0.1 µM | IC50 [2]: > 25 µM | IC50 [3]: 2.33 µM | IC50 [4]: > 25 µM | IC50 [5]: > 25 µM | IC50 [6]: > 25 µM | IC50 [7]: 2.07 µM

From publication PMC7242711, “An integrated approach to unravel a crucial structural property required for the function of the insect steroidogenic Halloween protein Noppera-bo” (The Journal of Biological Chemistry, 2020)
